Laboratory results as given in ChEMBL document CHEMBL1201862, “PubChem BioAssay data set” (2004).
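Five compound concentrations were applied to cells in 96-well plates for 48 hours; endpoints were derived by simple linear interpolation of the resulting dose-response curve. GI50: concentration for 50% inhibition of growth.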 Active and inactive are the calls of the source. Rule as the data show it: active = GI50 up to about 1.1 µM and inactive = higher.

Key:
Assay in all cases: DTP human tumour cell line panel, 48 h
[1] = system: SNB-78
[2] = system: 786-0
[3] = system: EKVX
[4] = system: LOX IMVI
[5] = system: LXFL 529
[6] = system: DLD-1
[7] = system: HOP-92
[8] = system: SNB-19
[9] = system: SN12C
[10] = system: RPMI-8226
[11] = system: SF-295
[12] = system: U-251
[13] = system: SNB-75
[14] = system: HCC 2998
[15] = system: HOP-18
[16] = system: SF-539
[17] = system: HCT-15
[18] = system: M14
[19] = system: OVCAR-4
[20] = system: OVCAR-5
[21] = system: OVCAR-8
[22] = system: SK-OV-3
[23] = system: SK-MEL-28
[24] = system: NCI-H226
[25] = system: UO-31
[26] = system: HOP-62
[27] = system: SK-MEL-2
[28] = system: HT-29
[29] = system: DMS-273
[30] = system: KM12
[31] = system: A498
[32] = system: SR
[33] = system: CCRF-CEM
[34] = system: CAKI-1
[35] = system: MOLT-4
[36] = system: ACHN
[37] = system: Malme-3M
[38] = system: NCI-H460
[39] = system: HCT-116
[40] = system: UACC-62
[41] = system: HL-60
[42] = system: UACC-257
[43] = system: XF498
[44] = system: NCI-H23
[45] = system: K562
[46] = system: TK-10
[47] = system: A549
[48] = system: M19-MEL
[49] = system: RXF 393
[50] = system: KM-20L2
[51] = system: IGROV-1
[52] = system: SW-620
[53] = system: SF-268
[54] = system: OVCAR-3
[55] = system: NCI-H522
[56] = system: DMS-114
[57] = system: COLO 205
[58] = system: SK-MEL-5
[59] = system: MCF7
[60] = system: NCI/ADR-RES

Measured: GI50

CCCCn1/c(=N/C(=S)N(C)C)ss/c1=N\C(=S)N(C)C
> 100 µM: [17]
inactive: [1] > 100 µM | [2] > 100 µM | [3] > 100 µM | [4] > 100 µM | [5] > 100 µM | [6] > 100 µM | [7] > 100 µM | [8] > 100 µM | [9] > 100 µM | [10] > 100 µM | [11] > 100 µM | [12] > 100 µM | [13] > 100 µM | [14] > 100 µM | [15] > 100 µM | [16] > 100 µM | [18] > 100 µM | [19] > 100 µM | [20] > 100 µM | [21] > 100 µM | [22] > 100 µM | [23] > 100 µM | [24] 7.28 µM | [25] > 100 µM | [26] > 100 µM | [27] > 100 µM | [28] > 100 µM | [29] > 100 µM | [30] > 100 µM | [31] > 100 µM | [32] > 100 µM | [33] > 100 µM | [34] > 100 µM | [35] > 100 µM | [36] > 100 µM | [37] > 100 µM | [38] > 100 µM | [39] > 100 µM | [40] > 100 µM | [41] > 100 µM | [42] > 100 µM | [43] > 100 µM | [44] > 100 µM | [45] > 100 µM | [46] 6.19 µM | [47] > 100 µM | [48] > 100 µM | [49] > 100 µM | [50] > 100 µM | [51] > 100 µM | [52] > 100 µM | [53] > 100 µM

O=c1c2cccnc2ncn1CCCN1CCCC1
inactive: [1] > 100 µM | [2] > 100 µM | [3] > 100 µM | [4] > 100 µM | [6] > 100 µM | [7] > 100 µM | [8] > 100 µM | [9] > 100 µM | [11] > 100 µM | [12] > 100 µM | [13] > 100 µM | [54] > 100 µM | [55] > 100 µM | [16] > 100 µM | [18] > 100 µM | [19] > 100 µM | [20] > 100 µM | [21] > 100 µM | [22] > 100 µM | [23] > 10 µM | [24] 91 µM | [25] > 100 µM | [56] 86.1 µM | [26] > 100 µM | [27] > 100 µM | [28] > 100 µM | [57] 97.3 µM | [29] > 100 µM | [30] > 100 µM | [32] > 100 µM | [33] > 100 µM | [34] > 100 µM | [35] > 100 µM | [36] > 100 µM | [38] > 100 µM | [58] > 100 µM | [39] > 100 µM | [40] > 100 µM | [43] > 100 µM | [44] > 100 µM | [45] > 100 µM | [46] > 100 µM | [47] > 100 µM | [48] > 100 µM | [49] > 100 µM | [51] > 100 µM | [52] > 100 µM | [53] > 100 µM

COC(=O)/C(=N\NC(=O)C[N+](C)(C)C)C(C(=O)OC)C(=O)C(=O)Nc1ccccc1C(N)=O (stereo not drawn)
> 100 µM: [17]
inactive: [1] > 100 µM | [2] > 100 µM | [3] > 100 µM | [4] > 100 µM | [5] > 100 µM | [6] > 100 µM | [8] > 100 µM | [9] > 100 µM | [10] > 100 µM | [11] > 100 µM | [12] > 100 µM | [13] > 100 µM | [54] > 100 µM | [55] > 100 µM | [14] > 100 µM | [15] > 100 µM | [16] > 100 µM | [18] > 100 µM | [19] > 100 µM | [20] > 100 µM | [22] > 100 µM | [23] > 100 µM | [24] > 100 µM | [25] > 100 µM | [26] > 100 µM | [27] > 100 µM | [28] > 100 µM | [57] > 100 µM | [29] > 100 µM | [30] > 100 µM | [31] > 100 µM | [32] > 100 µM | [33] > 100 µM | [34] > 100 µM | [35] > 100 µM | [36] > 100 µM | [37] > 100 µM | [38] > 100 µM | [58] > 100 µM | [39] > 100 µM | [40] > 100 µM | [41] > 100 µM | [42] > 100 µM | [44] > 100 µM | [45] > 100 µM | [46] > 100 µM | [47] > 100 µM | [48] > 100 µM | [49] > 100 µM | [50] > 100 µM | [51] > 100 µM | [52] > 100 µM | [53] > 100 µM

COc1cc(C2c3cc4c(cc3[C@@H](Nc3ccc5c(c3)OCO5)C3COC(=O)[C@H]23)OCO4)cc(OC)c1O (stereo partly drawn)
active: [4] 0.456 µM | [7] 0.424 µM | [8] 0.299 µM | [9] 0.643 µM | [10] 0.774 µM | [11] 0.213 µM | [12] 0.185 µM | [13] 0.991 µM | [55] 1.06 µM | [15] 0.766 µM | [16] 0.324 µM | [24] 0.217 µM | [25] 0.382 µM | [26] 0.177 µM | [59] 0.175 µM | [60] 0.482 µM | [29] 0.105 µM | [31] 0.333 µM | [33] 0.0641 µM | [34] 0.152 µM | [35] < 0.0136 µM | [38] < 0.01 µM | [58] 0.63 µM | [39] 0.74 µM | [40] 0.322 µM | [41] 0.043 µM | [42] 0.507 µM | [44] 0.303 µM | [45] 0.721 µM | [47] 0.0294 µM | [49] 1.09 µM | [53] 0.953 µM
0.336 µM: [17]
inactive: [3] 2.45 µM | [6] 1.55 µM | [54] 2.9 µM | [14] 1.42 µM | [20] 2.74 µM | [21] 1.38 µM | [22] 1.25 µM | [23] 3.43 µM | [27] 2.4 µM | [28] 1.24 µM | [57] 1.68 µM | [30] 1.79 µM | [37] 1.42 µM | [43] 1.64 µM | [48] 1.65 µM | [50] 2.24 µM | [51] 2.49 µM | [52] 1.2 µM

COc1ccc(/C=c2/sc3n(c2=O)NC2(CCC(C)CC2)NN=3)cc1 (stereo not drawn)
inactive: [1] > 100 µM | [2] > 100 µM | [3] > 100 µM | [4] > 100 µM | [5] > 100 µM | [6] > 100 µM | [7] 34.9 µM | [8] > 100 µM | [9] > 100 µM | [11] > 100 µM | [12] > 100 µM | [13] > 100 µM | [54] 60.8 µM | [55] > 100 µM | [14] > 100 µM | [16] > 100 µM | [18] > 100 µM | [19] 52.5 µM | [20] > 100 µM | [21] > 100 µM | [22] > 100 µM | [23] > 100 µM | [24] > 100 µM | [25] > 100 µM | [56] 50 µM | [26] > 100 µM | [27] > 100 µM | [28] > 100 µM | [57] > 100 µM | [29] > 100 µM | [30] > 100 µM | [32] > 100 µM | [33] > 100 µM | [34] > 100 µM | [35] > 100 µM | [36] > 100 µM | [37] > 100 µM | [38] > 100 µM | [58] 49.7 µM | [39] > 100 µM | [40] > 100 µM | [43] > 100 µM | [44] > 100 µM | [45] > 100 µM | [46] > 100 µM | [47] > 100 µM | [48] > 100 µM | [49] > 100 µM | [50] > 100 µM | [51] > 100 µM | [52] > 100 µM | [53] > 100 µM
